In patent US20250194601A1, “PYRIDAZINONE COMPOUND OR SALT THEREOF AND PEST CONTROL AGENT CONTAINING IT” (ISHIHARA SANGYO KAISHA, LTD., priority 2022, published 2025):

Legend:
Type in all cases: in vivo
[1] = tested on: brown planthopper (Nilaparvata luqens); assay: whole plant or invertebrate; settings: in Oryza sativa, second to third instar nymphs, 5th day after release
Excerpt: (§1) Test on effect against brown planthopper (Nilaparvata luqens) Rice seedlings were dipped in a chemical solution of a test compound at a concentration of 200 ppm or 50 ppm. After the chemical solution dried in air, the root was wrapped with wet adsorbent cotton, and the seedlings were put into a test tube. About 10 second to third instar nymphs of brown planthopper were released, the test tube was covered with a gauze, and the test tube was left in a constant temperature chamber with lighting at 25° C. On the 5th day after release, the number of dead nymphs was counted, and the mortality (%) was calculated by the following formula.
Mortality (%)=[(number of dead nymphs)/(number of released nymphs)]×100

[2] = tested on: green peach aphid (Myzus persicae); assay: whole plant or invertebrate; settings: in Raphanus sativus, foliar, nymphs, 5th day after the application
Excerpt: Test on effect against green peach aphid (Myzus persicae)
(§2) A Japanese radish leaf was inserted in a test tube in which water was put, and 5 adults of green peach aphid were released on the leaf. On the next day, the adults were removed, and the number of nymphs parasitic on the leaf was counted as the number of tested nymphs, and then the leaf was dipped in a chemical solution of a test compound at a concentration of 200 ppm or 50 ppm. After the chemical solution dried in air, the leaf was left in a constant temperature chamber with lighting at 25° C. On the 5th day after the application, the number of dead nymphs was counted, and the mortality (%) was calculated by the following formula. Nymphs that dropped from the leaf or nymphs that were moribund were counted as dead nymphs.
Mortality (%)=[(Number of dead nymphs)/(number of tested nymphs)]x100

[3] = tested on: two-spotted spider mite (Tetranychus urticae); assay: Test Example 3: effects against two-spotted spider mite, kidney bean leaf dip; settings: foliar, adults, 3rd day after the application
Description: Test on effects against two-spotted spider mite (Tetranychus urticae) In a chemical solution of a test compound at a concentration of 800 ppm, 200 ppm or 50 ppm, a leaf of kidney bean on which about 20 adults of two-spotted spider mite had been released, was dipped. After the chemical solution dried in air, the leaf was left in a constant temperature chamber with lighting at 25° C. On the 3rd day after the application, the number of dead adults was counted, and the mortality (%) was calculated by the following formula. Adults that dropped from the leaf or adults that were moribund were counted as dead adults.

[4] = tested on: brown planthopper (Nilaparvata luqens); assay: Comparative Test Example 1: brown planthopper, rice seedling dip; settings: 5th day after release; for mortality at 50 ppm: Active ingredient concentration 50 ppm; for mortality at 200 ppm: Active ingredient concentration 200 ppm
Description: as §1, with “Rice” for “Test on effect against brown planthopper (Nilaparvata luqens) Rice”, “planthopper (Nilaparvata luqens)were” for “planthopper were”
The test compounds are Compound No. 2-12 as the compound of the present invention and the following Comparative Compounds (A) and (B) as the comparative compounds.

[5] = tested on: green peach aphid (Myzus persicae); assay: Comparative Test Example 2: green peach aphid, radish leaf dip; settings: foliar, 5th day after the application; for mortality at 50 ppm: Active ingredient concentration 50 ppm; for mortality at 200 ppm: Active ingredient concentration 200 ppm
Excerpt: as §2, with “aphid (Myzus persicae)” for “aphid”, “[…].” for “25° C.”
The test compounds were the same as in Comparative Test Example 1.

| SMILES | mortality at 200 ppm [1] | mortality at 200 ppm [2] | mortality at 800 ppm [3] | mortality at 50 ppm [4] | mortality at 200 ppm [4] | mortality at 50 ppm [5] | mortality at 200 ppm [5] | mortality at 200 ppm [3] |
| --- | --- | --- | --- | --- | --- | --- | --- | --- |
| CCc1nn(-c2ncc(C(F)(F)F)cc2Cl)c(=O)c(-n2ccc(C(F)(F)F)n2)c1O [1-57, 2-[3-chloro-5-(trifluoromethyl)pyridin-2-yl]-6-ethyl-5-hydroxy-4-[3-(trifluoromethyl)-1 H-pyrazol-1-yl]pyridazin-3(2H)-one] | ≥ 90% | ≥ 90% |  |  |  |  |  |  |
| CCc1nn(-c2ccc(C(F)(F)F)cc2Cl)c(=O)c(-n2ccc(C(F)(F)F)n2)c1O [2-12] | ≥ 90% | ≥ 90% | ≥ 80% | 100% | 100% | 100% | 100% |  |
| CCc1nn(-c2c(Cl)cc(C(F)(F)F)cc2Cl)c(=O)c(-n2ccc(C(F)(F)F)n2)c1O [2-97, 2-[2,6-dichloro-4-(trifluoromethyl)phenyl]-6-ethyl-5-hydroxy-4-[3-(trifluoromethyl)-1 H-pyrazol-1-yl]pyridazin-3(2H)-one] | ≥ 90% | ≥ 90% | ≥ 80% |  |  |  |  |  |
| CCc1nn(-c2c(C)cc(S(=O)(=O)C(F)(F)F)cc2C)c(=O)c(-n2ccc(Cl)n2)c1O [2-191, 4-(3-chloro-1 H-pyrazol-1-yl)-2-{2,6-dimethyl-4-[(trifluoromethyl)sulfonyl]phenyl}-6-ethyl-5-hydroxypyridazin-3(2H)-one] | ≥ 90% | ≥ 90% |  |  |  |  |  |  |
| COCc1nn(-c2c(C)cc(C(F)(F)F)cc2C)c(=O)c(-n2ccc(Cl)n2)c1O [2-444, 4-(3-chloro-1 H-pyrazol-1-yl)-2-[2,6-dimethyl-4-(trifluoromethyl)phenyl]-5-hydroxy-6-(methoxymethyl)pyridazin-3(2H)-one] | ≥ 90% | ≥ 90% |  |  |  |  |  |  |
| Cc1ccn(-c2c(O)c(C(F)(F)F)nn(-c3c(C)cc(C(F)(F)F)cc3C)c2=O)n1 [2-516, 2-[2,6-dimethyl-4-(trifluoromethyl)phenyl]-5-hydroxy-4-(3-methyl-1 H-pyrazol-1-yl)-6-(trifluoromethyl)pyridazin-3(2H)-one] | ≥ 90% | ≥ 90% |  |  |  |  |  | ≥ 80% |
| CCc1nn(-c2c(C)cc(C(F)(F)F)cc2C)c(=O)c(-n2cnc([N+](=O)[O-])n2)c1O [6-65, 2-[2,6-dimethyl-4-(trifluoromethyl)phenyl]-6-ethyl-5-hydroxy-4-(3-nitro-1 H-1,2,4-triazol-1-yl)pyridazin-3(2H)-one] | ≥ 90% | ≥ 90% |  |  |  |  |  |  |
| CCc1ncn(-c2c(O)c(C(C)C)nn(-c3c(C)cc(C(F)(F)F)cc3C)c2=O)n1 [6-134, 2-[2,6-dimethyl-4-(trifluoromethyl)phenyl]-4-(3-ethyl-1 H-1,2,4-triazol-1-yl)-5-hydroxy-6-isopropylpyridazin-3(2H)-one] | ≥ 90% | ≥ 90% |  |  |  |  |  | ≥ 80% |
| CCc1nn(-c2c(C)cc(C#N)cc2C)c(=O)c(-n2cnc(Cl)n2)c1O [6-136, 4-[5-(3-chloro-1 H-1,2,4-triazol-1-yl)-3-ethyl-4-hydroxy-6-oxopyridazin-1(6H)-yl]-3,5-dimethylbenzonitrile] | ≥ 90% | ≥ 90% |  |  |  |  |  |  |
| CCc1nn(C)c(=O)c(-n2ccc(C(F)(F)F)n2)c1O [Comparative compound (A)] |  |  |  | 0% | 0% | 0% | 20% |  |
| CCc1nn(-c2ccc(C(F)(F)F)cc2Cl)c(=O)c(-c2ccc(F)cc2)c1O [Comparative compound (B)] |  |  |  | 0% | 0% | 0% | 30% |  |
